# In PMC9481151, “Discovery of new symmetrical and asymmetrical nitrile-containing 1,4-dihydropyridine derivatives as dual kinases and P-glycoprotein inhibitors: synthesis, in vitro assays, and in silico studies” (Journal of Enzyme Inhibition and Medicinal Chemistry, 2022):
# Experiments:
# HOP-92 = experiment: NCI single dose (10 µM) SRB screen; assay type: cell-based, human; conditions: non-small cell lung cancer, 48 h
# SK-MEL-5 = experiment: NCI single dose (10 µM) SRB screen; assay type: cell-based, human; conditions: melanoma, 48 h
# EKVX = experiment: NCI single dose (10 µM) SRB screen; assay type: cell-based, human; conditions: non-small cell lung cancer, 48 h
# SR = experiment: NCI single dose (10 µM) SRB screen; assay type: cell-based, human; conditions: leukaemia, 48 h
# M14 = experiment: NCI single dose (10 µM) SRB screen; assay type: cell-based, human; conditions: melanoma, 48 h
# MDA-MB-468 = experiment: NCI single dose (10 µM) SRB screen; assay type: cell-based, human; conditions: breast cancer, 48 h
# UACC-62 = experiment: NCI single dose (10 µM) SRB screen; assay type: cell-based, human; conditions: melanoma, 48 h
# HCT-15 = experiment: NCI single dose (10 µM) SRB screen; assay type: cell-based, human; conditions: colon cancer, 48 h
# UACC-257 = experiment: NCI single dose (10 µM) SRB screen; assay type: cell-based, human; conditions: melanoma, 48 h
# NCI 60 cancer cell lines = experiment: NCI single dose (10 µM) SRB screen, mean over panel; assay type: cell-based, human; conditions: mean over 60 cell lines, 48 h
# MALME-3M = experiment: NCI single dose (10 µM) SRB screen; assay type: cell-based, human; conditions: melanoma, 48 h
# UO-31 = experiment: NCI single dose (10 µM) SRB screen; assay type: cell-based, human; conditions: renal cancer, 48 h
# Candida albicans = experiment: Agar well diffusion method
# NCI-H23 = experiment: NCI single dose (10 µM) SRB screen; assay type: cell-based, human; conditions: non-small cell lung cancer, 48 h
# RPMI-8226 = experiment: NCI single dose (10 µM) SRB screen; assay type: cell-based, human; conditions: leukaemia, 48 h
# HT29 = experiment: NCI single dose (10 µM) SRB screen; assay type: cell-based, human; conditions: colon cancer, 48 h
# SK-MEL-2 = experiment: NCI single dose (10 µM) SRB screen; assay type: cell-based, human; conditions: melanoma, 48 h
# CCRF-CEM = experiment: NCI single dose (10 µM) SRB screen; assay type: cell-based, human; conditions: leukaemia, 48 h
# CAKI-1 = experiment: NCI single dose (10 µM) SRB screen; assay type: cell-based, human; conditions: renal cancer, 48 h
# LOX IMVI = experiment: NCI single dose (10 µM) SRB screen; assay type: cell-based, human; conditions: melanoma, 48 h
# SW-620 = experiment: NCI single dose (10 µM) SRB screen; assay type: cell-based, human; conditions: colon cancer, 48 h
# U251 = experiment: NCI single dose (10 µM) SRB screen; assay type: cell-based, human; conditions: CNS cancer, 48 h
# HS578T = experiment: NCI single dose (10 µM) SRB screen; assay type: cell-based, human; conditions: breast cancer, 48 h
# MDA-MB-231 = experiment: NCI single dose (10 µM) SRB screen; assay type: cell-based, human; conditions: breast cancer, 48 h
# Bacillus subtilis = experiment: Agar well diffusion method
# NCI-H226 = experiment: NCI single dose (10 µM) SRB screen; assay type: cell-based, human; conditions: non-small cell lung cancer, 48 h
# A549/ATCC = experiment: NCI single dose (10 µM) SRB screen; assay type: cell-based, human; conditions: non-small cell lung cancer, 48 h
# SF-268 = experiment: NCI single dose (10 µM) SRB screen; assay type: cell-based, human; conditions: CNS cancer, 48 h
# DU-145 = experiment: NCI single dose (10 µM) SRB screen; assay type: cell-based, human; conditions: prostate cancer, 48 h
# NCI/ADR-RES = experiment: NCI single dose (10 µM) SRB screen; assay type: cell-based, human; conditions: ovarian cancer, 48 h
# NCI-H322M = experiment: NCI single dose (10 µM) SRB screen; assay type: cell-based; conditions: non-small cell lung cancer, 48 h
# MDA-MB-435 = experiment: NCI single dose (10 µM) SRB screen; assay type: cell-based, human; conditions: melanoma, 48 h
# PC-3 = experiment: NCI single dose (10 µM) SRB screen; assay type: cell-based, human; conditions: prostate cancer, 48 h
# COLO 205 = experiment: NCI single dose (10 µM) SRB screen; assay type: cell-based, human; conditions: colon cancer, 48 h
# SF-295 = experiment: NCI single dose (10 µM) SRB screen; assay type: cell-based, human; conditions: CNS cancer, 48 h
# ACHN = experiment: NCI single dose (10 µM) SRB screen; assay type: cell-based, human; conditions: renal cancer, 48 h
# NCI-H522 = experiment: NCI single dose (10 µM) SRB screen; assay type: cell-based, human; conditions: non-small cell lung cancer, 48 h
# TK-10 = experiment: NCI single dose (10 µM) SRB screen; assay type: cell-based, human; conditions: renal cancer, 48 h
# MOLT-4 = experiment: NCI single dose (10 µM) SRB screen; assay type: cell-based, human; conditions: leukaemia, 48 h
# SNB-19 = experiment: NCI single dose (10 µM) SRB screen; assay type: cell-based, human; conditions: CNS cancer, 48 h
# HCC-2998 = experiment: NCI single dose (10 µM) SRB screen; assay type: cell-based, human; conditions: colon cancer, 48 h
# BT-549 = experiment: NCI single dose (10 µM) SRB screen; assay type: cell-based, human; conditions: breast cancer, 48 h
# KM12 = experiment: NCI single dose (10 µM) SRB screen; assay type: cell-based, human; conditions: colon cancer, 48 h
# HL-60(TB) = experiment: NCI single dose (10 µM) SRB screen; assay type: cell-based, human; conditions: leukaemia, 48 h
# SNB-75 = experiment: NCI single dose (10 µM) SRB screen; assay type: cell-based, human; conditions: CNS cancer, 48 h
# HCT-116 = experiment: NCI single dose (10 µM) SRB screen; assay type: cell-based, human; conditions: colon cancer, 48 h
# HOP-62 = experiment: NCI single dose (10 µM) SRB screen; assay type: cell-based, human; conditions: non-small cell lung cancer, 48 h
# MCF7 = experiment: NCI single dose (10 µM) SRB screen; assay type: cell-based, human; conditions: breast cancer, 48 h
# SK-OV-3 = experiment: NCI single dose (10 µM) SRB screen; assay type: cell-based, human; conditions: ovarian cancer, 48 h
# Escherichia coli = experiment: Agar well diffusion method; conditions: relative to ciprofloxacin
# Staphylococcus aureus = experiment: Agar well diffusion method
# A498 = experiment: NCI single dose (10 µM) SRB screen; assay type: cell-based, human; conditions: renal cancer, 48 h
smiles,measurement,setting,value
"CCOC(=O)C1=C(C)NC(C)=C(C(=O)OC(C)C)C1c1cccc(C#N)c1 (racemic) [Compound 2h, (±)-3-Ethyl 5-isopropyl 4-(3-cyanophenyl)-2,6-dimethyl-1,4-dihydropyridine-3,5-dicarboxylate]",GI% HOP-92,HOP-92,– (Only GI% ≥ 10 are shown)
same,GI% SK-MEL-5,SK-MEL-5,– (Only GI% ≥ 10 are shown)
same,GI% EKVX,EKVX,– (Only GI% ≥ 10 are shown)
same,GI% SR,SR,– (Only GI% ≥ 10 are shown)
same,GI% M14,M14,– (Only GI% ≥ 10 are shown)
same,GI% MDA-MB-468,MDA-MB-468,20%
same,GI% UACC-62,UACC-62,– (Only GI% ≥ 10 are shown)
same,GI% HCT-15,HCT-15,– (Only GI% ≥ 10 are shown)
same,GI% UACC-257,UACC-257,– (Only GI% ≥ 10 are shown)
same,Mean GI%,NCI 60 cancer cell lines,0%
same,GI% MALME-3M,MALME-3M,– (Only GI% ≥ 10 are shown)
same,GI% UO-31,UO-31,– (Only GI% ≥ 10 are shown)
same,zone of inhibition at 1000 µg/mL,"Candida albicans; Candida albicans, 24 h, read-out: Diameter of inhibition zone, C. albicans",8 mm
same,"% activity index, C. albicans",Candida albicans; relative to clotrimazole,29.6%
same,GI% NCI-H23,NCI-H23,– (Only GI% ≥ 10 are shown)
same,GI% RPMI-8226,RPMI-8226,– (Only GI% ≥ 10 are shown)
same,GI% HT29,HT29,– (Only GI% ≥ 10 are shown)
same,GI% SK-MEL-2,SK-MEL-2,– (Only GI% ≥ 10 are shown)
same,GI% CCRF-CEM,CCRF-CEM,– (Only GI% ≥ 10 are shown)
same,GI% CAKI-1,CAKI-1,15%
same,GI% LOX IMVI,LOX IMVI,– (Only GI% ≥ 10 are shown)
same,GI% SW-620,SW-620,– (Only GI% ≥ 10 are shown)
same,GI% U251,U251,– (Only GI% ≥ 10 are shown)
same,GI% HS578T,HS578T,– (Only GI% ≥ 10 are shown)
same,GI% MDA-MB-231,MDA-MB-231,– (Only GI% ≥ 10 are shown)
same,zone of inhibition at 1000 µg/mL,"Bacillus subtilis; Bacillus subtilis, 24 h, read-out: Diameter of inhibition zone, B. subtilis",8 mm
same,"% activity index, B. subtilis",Bacillus subtilis; relative to ciprofloxacin,34.8%
same,GI% NCI-H226,NCI-H226,– (Only GI% ≥ 10 are shown)
same,GI% A549/ATCC,A549/ATCC,– (Only GI% ≥ 10 are shown)
same,GI% SF-268,SF-268,– (Only GI% ≥ 10 are shown)
same,GI% DU-145,DU-145,– (Only GI% ≥ 10 are shown)
same,GI% NCI/ADR-RES,NCI/ADR-RES,– (Only GI% ≥ 10 are shown)
same,GI% NCI-H322M,NCI-H322M,– (Only GI% ≥ 10 are shown)
same,GI% MDA-MB-435,MDA-MB-435,– (Only GI% ≥ 10 are shown)
same,GI% PC-3,PC-3,12%
same,GI% COLO 205,COLO 205,– (Only GI% ≥ 10 are shown)
same,GI% SF-295,SF-295,– (Only GI% ≥ 10 are shown)
same,GI% ACHN,ACHN,– (Only GI% ≥ 10 are shown)
same,GI% NCI-H522,NCI-H522,– (Only GI% ≥ 10 are shown)
same,GI% TK-10,TK-10,– (Only GI% ≥ 10 are shown)
same,GI% MOLT-4,MOLT-4,11%
same,GI% SNB-19,SNB-19,– (Only GI% ≥ 10 are shown)
same,GI% HCC-2998,HCC-2998,– (Only GI% ≥ 10 are shown)
same,GI% BT-549,BT-549,– (Only GI% ≥ 10 are shown)
same,GI% KM12,KM12,– (Only GI% ≥ 10 are shown)
same,GI% HL-60(TB),HL-60(TB),– (Only GI% ≥ 10 are shown)
same,GI% SNB-75,SNB-75,15%
same,GI% HCT-116,HCT-116,– (Only GI% ≥ 10 are shown)
same,GI% HOP-62,HOP-62,– (Only GI% ≥ 10 are shown)
same,GI% MCF7,MCF7,– (Only GI% ≥ 10 are shown)
same,GI% SK-OV-3,SK-OV-3,– (Only GI% ≥ 10 are shown)
same,"% activity index, E. coli",Escherichia coli,– (Values below 25 are of limited value and not shown as they refer either to inactive or non-diffusing compounds)
same,zone of inhibition at 1000 µg/mL,"Staphylococcus aureus; Staphylococcus aureus, 24 h, read-out: Diameter of inhibition zone, S. aureus",11 mm
same,"% activity index, S. aureus",Staphylococcus aureus; relative to ciprofloxacin,45.8%
same,GI% A498,A498,16%
